Results published in patent US20240002786A1, “SHRINKABLE HYDROGELS” (THE BRIGHAM AND WOMEN'S HOSPITAL, INC., priority 2020, published 2024).

Assay: Hydrogel disc shrinking capacity with polycation solutions
Method: Hydrogels were made from gelMA A or B, fish GelMA, and/or HAMA and were prepared at different concentrations. GelMA formulations were dissolved whilst stirring in MilliQ water at 37° C. for 2 h. HAMA formulations were dissolved into MilliQ water overnight under agitation. Both HAMA and gelMA solutions were supplemented with 0.1 wt % Irgacure 2959 (Sigma-Aldrich) prior to UV crosslinking. The prepared polymer solutions were cast in circular PDMS molds (diameter: 4.5 cm) and subsequently UV-irradiated (methacrylate conversion was determined to be >95%). Subsequently, a biopsy punch (Integra Miltex, various diameters) was used to cut cylindrical hydrogels of 2 mm in height.
Shrinking agents were dissolved overnight in either phosphate-buffered saline (170 mM of ionic strength, pH 7.4) or diluted or NaCl-supplemented phosphate buffer (17-700 mM ionic strengths, pH 7.4) for up to 2.0 wt %. Cut hydrogels were initially measured using Vernier calipers (standard error=30 μm) to determine their volumes and subsequently incubated in the various shrinking agent solutions (volume: 2 mL, n=3 for every condition). Unless stated otherwise, incubation was done at room temperature. Hydrogel diameter and height were monitored either over time to determine hydrogel shrinking kinetics or after full dehydration had occurred to determine maximum shrinking capacity (typically after 12 h).

In the case of lysozyme, the hydrogel shrinking (isotonic conditions (170 mM of ionic strength and pH 7.4)) is reported as “did not shrink at all” and the hydrogel shrinking (reduced ionic strength (85 mM, pH 7.4)) is reported as “hydrogel shrinking was observed”.
